This note sets out measurements from patent publication US9677112B2 (priority 2012, dated 2017).

Like-named read-outs stand apart in the source and are kept apart here. Marks after values point to notes of the source that are not given here.

The test system of series [1] is O=C(Cc1ccccc1)N[C@@H]1C(=O)N2C(C(=O)O)=C(COc3ccc4ccc(=O)oc4c3)C[S@+]([O-])[C@H]12. The experiment in a line: purified protein, by the assay type. The settings on record: pH 7.4; 22.0 °C.
Series [2] concerns COc1ccc(-c2c3ccc(=O)cc-3oc3cc(OCc4ccc(OCC5=C(C(=O)O)N6C(=O)[C@](NC(=O)Cc7ccccc7)(OC)[C@H]6SC5)cc4)ccc23)c(C)c1. Put plainly: purified protein, by the assay type. The note with it: 22.0 °C.
The test system of series [3] is COc1ccc(-c2c3ccc(=O)cc-3oc3cc(OCc4ccc(OCC5=C(C(=O)O)N6C(=O)[C@@H](NC(=O)Cc7ccccc7)[C@H]6SC5)cc4)ccc23)c(C)c1. Put plainly: purified protein, by the assay type. The note with it: 22.0 °C.
Series [4] concerns the target T1, BlaC (Mycobacterium tuberculosis, UniProt P9WKD3). The settings on record: for Km: read-out: BlaC Km.
Series [5] has as its target T1, BlaC. Put plainly: Fluorescence activation of probes by BlaC. It is filed as biochemical. As to the method:
(§1) The fluorescent spectra of the probes CDC-1, CDC-3, CDC-OMe and CDC-OEt were recorded before and after BlaC treatment to examine their responses to BlaC.
(§2) The response of CDC-OMe to varying concentrations of BlaC and TEM-1 Bla (at a range of 1 pM to 100 nM) was examined to investigate its specificity (FIG. 1C). 1 nM of BlaC (100 μL) induced a 130% increase in the fluorescence intensity within one hour (F/F0=2.3), while a 100-fold higher TEM-1 Bla concentration (100 nM) could only produce 30% fluorescence enhancement (F/F0=1.3).
(§3) Even at a more than 1000-fold higher concentration, the fluorescence signal of CDG-OMe generated by TEM-1 Bla (400 nM) was just 30% of that by BlaC (400 pM) in 300 mins, confirming its high selectivity for BlaC (FIG. 5C). Less than 1 fmol of BlaC was readily detectable with CDG-OMe after 8 hours incubation (FIG. 5D).

The target in the next series is TEM-1 Bla (Escherichia coli, UniProt P62593). The experiment in a line: Fluorescence activation of probes by TEM-1 Bla. It is filed as biochemical, E. coli. The settings on record: for change in fluorescence with TEM-1 Bla (in words): TEM-1 Bla 50 nM, 30 minutes. As to the method: as §1, §2, §3
Sequence of TEM-1 Bla (P62593 24-286 limits assumed): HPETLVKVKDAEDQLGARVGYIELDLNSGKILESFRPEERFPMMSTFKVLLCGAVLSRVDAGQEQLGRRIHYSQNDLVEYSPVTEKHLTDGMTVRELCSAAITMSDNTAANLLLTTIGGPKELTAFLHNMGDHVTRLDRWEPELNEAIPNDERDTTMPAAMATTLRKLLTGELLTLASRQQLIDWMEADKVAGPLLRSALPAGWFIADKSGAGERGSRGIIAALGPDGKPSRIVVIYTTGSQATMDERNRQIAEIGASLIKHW
The test system of a further series is BlaC-expressing E. coli. It is filed as cell-based.
Series [6] relates to TEM-1 Bla-expressing E. coli. It is filed as cell-based.
Series [7] has as its system M. tuberculosis var. bovis strain BCG. It is filed as cell-based, Mycobacterium tuberculosis var. bovis strain BCG.
The mark [8] stands for this setting: 1 nM of BlaC (100 μL), within one hour.

T1 sequence (P9WKD3 35-307 limits assumed): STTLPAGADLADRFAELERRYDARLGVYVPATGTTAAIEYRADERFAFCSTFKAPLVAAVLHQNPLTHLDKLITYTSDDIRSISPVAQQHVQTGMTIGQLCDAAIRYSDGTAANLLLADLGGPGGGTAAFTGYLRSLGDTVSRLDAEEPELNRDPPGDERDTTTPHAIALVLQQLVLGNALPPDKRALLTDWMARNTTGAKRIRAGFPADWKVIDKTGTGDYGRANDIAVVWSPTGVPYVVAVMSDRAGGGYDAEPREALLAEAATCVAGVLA

Broadly, the Km is the substrate concentration at which the rate is half of its maximum. The term kcat denotes the number of substrate molecules converted per active site and unit of time at saturation. In the case of BlaC (Mycobacterium tuberculosis H37Rv), the Km in [1] is 136 µM; in series [2] (pH 6.6), “(4.7)^c μM”; in series [2] (pH 7.4), 2.9 µM; in series [3] (pH 6.6) it was “(2.1)^c μM”; in series [3] (pH 7.4), 2.1 µM. Further, the results for the kcat in series [1], in series [2] (pH 7.4) and in series [3] (pH 7.4) were 0.51 s⁻¹, 0.7 s⁻¹ and 3.7 s⁻¹, respectively. The kcat/Km in series [1] was 3.8 × 10^3 s^−1M^−1; in series [2] (pH 7.4) it was 2.4 × 10^5 s^−1M^−1; in series [3] (pH 7.4), 1.8 × 10^6 s^−1M^−1.

Regarding `CC(=O)N[C@@H]1C(=O)N2C(C(=O)O)=C(COc3ccc4ccc(=O)oc4c3)CS[C@H]12` [CDC-4, (6R,7R)-7-Acetamido-8-oxo-3-(((2-oxo-2H-chromen-7-yl)oxy)methyl)-5-thia-1-azabicyclo[4.2.0]oct-2-ene-2-carboxylic acid], on BlaC [4], the BlaC kcat is 10 s⁻¹ and the Km was 148 µM.

On to `COc1ccc(-c2c3ccc(=O)cc-3oc3cc(OCc4ccc(OCC5=C(C(=O)O)N6C(=O)[C@](NC(=O)Cc7ccccc7)(OC)[C@H]6SC5)cc4)ccc23)c(C)c1` [CDG-OMe, (6R,7S)-7-Methoxy-3-((4-(((9-(4-methoxy-2-methylphenyl)-3-oxo-3H-xanthen-6-yl)oxy)methyl)phenoxy)methyl)-8-oxo-7-(2-phenylacetamido)-5-thia-1-azabicyclo[4.2.0]oct-2-ene-2-carboxylic acid], for which the “amount of BlaC readily detectable” value at BlaC [5] (after 8 hours incubation) was “Less than 1 fmol”. Moreover, at BlaC [5] (excitation 490 nm), the “increase of fluorescence emission at 520 nm upon treatment with BlaC” value was “up to 218 fold”. In addition, the “increase of kcat/Km for BlaC relative to CDC-OMe” value at BlaC [4] was found to be 11 fold. Moreover, at BlaC [4] (pH 6.6), the BlaC kcat entry is listed as “(0.8) s^−1”. For the same compound, on TEM-1 Bla (TEM-1 Bla 400 nM vs BlaC 400 pM, 300 mins), the “fluorescence signal generated by TEM-1 Bla relative to that by BlaC” value came to 30%. Further, in the series on BlaC-expressing E. coli, the “signal from BlaC-expressing E. coli (in words)” value is recorded as “strong fluorescent signal”. The “signal from TEM-1 Bla-expressing E. coli (in words)” value in series [6] is listed as “no detectable signal”. Further, the results for the “number of BCG detected” value in [7] (20 min incubation) and in [7] (438 mins (7 hours) incubation) were 2×10^5 CFU and 10^3 CFU, respectively.

Consider `COc1ccc(-c2c3ccc(=O)cc-3oc3cc(OCc4ccc(OCC5=C(C(=O)O)N6C(=O)[C@@H](NC(=O)Cc7ccccc7)[C@H]6SC5)cc4)ccc23)c(C)c1` [CDG-1, (6R,7R)-3-((4-(((9-(4-Methoxy-2-methylphenyl)-3-oxo-3H-xanthen-6-yl)oxy)methyl)phenoxy)methyl)-8-oxo-7-(2-phenylacetamido)-5-thia-1-azabicyclo[4.2.0]oct-2-ene-2-carboxylic acid], for which the BlaC kcat result on BlaC [4] (pH 6.6) is reported as “(1.0) s^−1”. Besides, in the series on BlaC-expressing E. coli, the “number of BlaC-carrying E. coli detected” value is on record as ~10,000. For the same compound, the “number of TEM-1 Bla-carrying E. coli detected” value in series [6] is listed as “approximately 1,000”.

Take `O=C(Cc1ccccc1)N[C@@H]1C(=O)N2C(C(=O)O)=C(COc3ccc4ccc(=O)oc4c3)CS[C@H]12` [CDC-1, (6R,7R)-8-Oxo-3-((2-oxo-2H-chromen-7-yloxy)methyl)-7-(2-phenylacetamido)-5-thia-1-azabicyclo[4.2.0]oct-2-ene-2-carboxylic acid]: at BlaC [4], the BlaC kcat is 13 s⁻¹ and the Km was 63 µM. Also, the “change in fluorescence with TEM-1 Bla (in words)” value (“change in fluorescence” below) on TEM-1 Bla is listed as “rapid fluorescence”. For the same compound, the “signal with TEM-1 Bla compared with BlaC (in words)” value at TEM-1 Bla (serially diluted enzymes, 1 hour) was “stronger signal than with BlaC”. The “fluorescence in E. coli expressing no β-lactamase, TEM-1 Bla or BlaC (in words)” value with BlaC-expressing E. coli is listed as “present in E. coli expressing either TEM-1 Bla or BlaC”.

In the case of `CCO[C@@]1(NC(=O)Cc2ccccc2)C(=O)N2C(C(=O)O)=C(COc3ccc4ccc(=O)oc4c3)CS[C@@H]21` [CDC-OEt, (6R,7S)-7-Ethoxy-8-oxo-3-((2-oxo-2H-chromen-7-yloxy)methyl)-7-(2-phenylacetamido)-5-thia-1-azabicyclo[4.2.0]oct-2-ene-2-carboxylic acid], the “fluorescence enhancement by BlaC (in words)” value at BlaC [5] (within 30 minutes, BlaC 50 nM) was “only slight fluorescence enhancement”. Also, on BlaC [4], the BlaC kcat was 0.026 s⁻¹, the “further reduction in turnover number (BlaC) relative to CDC-OMe” value is reported as 40 fold and the Km is 131 µM.

With `CCN1CCN(C(=O)N[C@@H](C(=O)N[C@@H]2C(=O)N3C(C(=O)O)=C(COc4ccc5ccc(=O)oc5c4)CS[C@H]23)c2ccccc2)C(=O)C1=O` [CDC-3, (6R,7R)-7-((R)-2-(4-Ethyl-2,3-dioxopiperazine-1-carboxamido)-2-phenylacetamido)-8-oxo-3-((2-oxo-2H-chromen-7-yloxy)methyl)-5-thia-1-azabicyclo[4.2.0]oct-2-ene-2-carboxylic acid], at BlaC [4], the BlaC kcat stood at 6 s⁻¹ and the Km stood at 69 µM. Also, the “change in fluorescence” value at TEM-1 Bla is “rapid fluorescence”.

`CO[C@@]1(NC(=O)Cc2ccccc2)C(=O)N2C(C(=O)O)=C(COc3ccc4ccc(=O)oc4c3)CS[C@@H]21` [CDC-OMe, (6R,7S)-7-Methoxy-8-oxo-3-((2-oxo-2H-chromen-7-yloxy)methyl)-7-(2-phenylacetamido)-5-thia-1-azabicyclo[4.2.0]oct-2-ene-2-carboxylic acid]: on BlaC [5] (setting [8]), the “F/F0 (turn-on ratio)” value came out at 2.3 and the “increase in the fluorescence intensity” value was 130%. The “enhancement of fluorescence intensity by BlaC” value on BlaC [5] (in less than 30 minutes, BlaC 50 nM) is “more than 30 fold”. Also, at BlaC [4], the BlaC kcat was 1 s⁻¹, the “catalytic efficiency (kcat/Km) for BlaC over TEM-1 Bla” value was “over 1,000 fold” and the Km came to 47 µM. Moreover, the “change in fluorescence” value on TEM-1 Bla was “no change in the fluorescence intensity”. Also, on TEM-1 Bla (TEM-1 Bla 100 nM, one hour), the “F/F0 (turn-on ratio)” value came to 1.3 and the fluorescence enhancement is listed as 30%. The “fluorescence in E. coli expressing no β-lactamase, TEM-1 Bla or BlaC (in words)” value with BlaC-expressing E. coli was “strong fluorescence was observed only with E. coli expressing BlaC”.

`CO[C@@]1(NC(C)=O)C(=O)N2C(C(=O)O)=C(COc3ccc4ccc(=O)oc4c3)CS[C@@H]21` [CDC-5, (6R,7S)-7-Acetamido-7-methoxy-8-oxo-3-(((2-oxo-2H-chromen-7-yl)oxy)methyl)-5-thia-1-azabicyclo[4.2.0]oct-2-ene-2-carboxylic acid]: at BlaC [4], the BlaC kcat turned out to be 0.52 s⁻¹ and the Km came to 139 µM.
